According to PubChem BioAssay (NCI):
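Following 48 hours of exposure in 96-well plates, responses at five concentrations were used to interpolate endpoints linearly. TGI marks complete inhibition of growth.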

Columns and labels:
Assay in all cases: growth of human tumour cells (NCI), 48 h
ACHN renal = tested on: ACHN renal
DU-145 prostate = tested on: DU-145 prostate
EKVX NSCLC = tested on: EKVX NSCLC
HL-60(TB) leukemia = tested on: HL-60(TB) leukemia
K-562 leukemia = tested on: K-562 leukemia
M14 melanoma = tested on: M14 melanoma
NCI-H23 lung = tested on: NCI-H23 lung
NCI-H460 lung = tested on: NCI-H460 lung
NCI/ADR-RES ovarian = tested on: NCI/ADR-RES ovarian
OVCAR-4 ovarian = tested on: OVCAR-4 ovarian
OVCAR-8 ovarian = tested on: OVCAR-8 ovarian
PC-3 prostate = tested on: PC-3 prostate
RPMI-8226 leukemia = tested on: RPMI-8226 leukemia
SF-268 CNS = tested on: SF-268 CNS
SF-295 CNS = tested on: SF-295 CNS
SK-MEL-2 melanoma = tested on: SK-MEL-2 melanoma
SK-MEL-5 melanoma = tested on: SK-MEL-5 melanoma
T-47D breast = tested on: T-47D breast
TK-10 renal = tested on: TK-10 renal

| SMILES | TGI (ACHN renal) [µM] | TGI (DU-145 prostate) [µM] | TGI (EKVX NSCLC) [µM] | TGI (HL-60(TB) leukemia) [µM] | TGI (K-562 leukemia) [µM] | TGI (M14 melanoma) [µM] | TGI (NCI-H23 lung) [µM] | TGI (NCI-H460 lung) [µM] | TGI (NCI/ADR-RES ovarian) [µM] | TGI (OVCAR-4 ovarian) [µM] | TGI (OVCAR-8 ovarian) [µM] | TGI (PC-3 prostate) [µM] | TGI (RPMI-8226 leukemia) [µM] | TGI (SF-268 CNS) [µM] | TGI (SF-295 CNS) [µM] | TGI (SK-MEL-2 melanoma) [µM] | TGI (SK-MEL-5 melanoma) [µM] | TGI (T-47D breast) [µM] | TGI (TK-10 renal) [µM] |
| --- | --- | --- | --- | --- | --- | --- | --- | --- | --- | --- | --- | --- | --- | --- | --- | --- | --- | --- | --- |
| N=C1/C(=C/c2ccco2)C(=O)N=C2SC=NN12 | > 100 | > 100 | > 100 | > 100 | > 100 | > 100 | > 100 | > 100 | > 100 | > 100 | > 100 | > 100 | > 100 | > 100 | > 100 | > 100 | > 100 | > 100 | > 100 |
| CC(=O)Oc1c(C)cc2c(c1C)C(C)(C)CN2C(=O)C(C)(C)C | > 100 | > 100 | > 100 | > 100 | > 100 | > 100 | > 100 | > 100 | > 100 | > 100 | > 100 | > 100 | > 100 | > 100 | > 100 | > 100 | > 100 | 96.2 | > 100 |
| CCOc1cc(/C=N\O)cc(/C=N/O)c1O | 59.4 | > 100 | > 100 | > 100 | > 100 | > 100 | > 100 | > 100 | > 100 | > 100 | 66.6 | > 100 | > 100 | 64.1 | > 100 | 41 | 39.5 | 93.8 | > 100 |
| CCCCCCCCCCCCCCCCCCNc1ccn(C2OC(COP(=O)(O)OCC(COP(=O)(O)OCC3OC(n4cc(C)c(=O)[nH]c4=O)CC3N=[N+]=[N-])OCCCCCCCCCCCCCCCCCC)C(O)C2O)c(=O)n1 (centres undefined) | > 100 | > 100 | > 100 | > 100 | > 100 | > 100 | > 100 | > 100 | > 100 | > 100 | > 100 | > 100 | > 100 | > 100 | > 100 | > 100 | > 100 | > 100 | > 100 |
| O=C1CCN=C(NC(=O)C(F)(F)F)N1CCc1c[nH]c2ccccc12 | > 100 | > 100 | > 100 | > 100 | > 100 | > 100 | > 100 | > 100 | > 100 | > 100 | > 100 | > 100 | > 100 | > 100 | > 100 | > 100 | > 100 | > 100 | > 100 |
| O=P1(N(CCCl)CCCl)Oc2c(Cl)cc(Cl)c(Cl)c2Cc2c(Cl)c(Cl)cc(Cl)c2O1 | > 100 | > 100 | > 100 | > 100 | > 100 | > 100 | > 100 | > 100 | > 100 | > 100 | > 100 | > 100 | > 100 | > 100 | > 100 | 74.5 | > 100 | > 100 | > 100 |
